Like-named read-outs stand apart in the source and are kept apart here.
What was measured:
NCI-H460 cells = assay: Proliferation assay, NCI-H460 (Method 3); assay type: cell-based, human; settings: 4 days, crystal violet, read-out: Inhibition of NCI-H460 cell proliferation IC50
Description: (§1) Cultivated tumour cells (HeLa, human cervical tumour cells, ATCC CCL-2; NCI-H460, human non-small cell lung carcinoma cells, ATCC HTB-177; A2780, human ovarian carcinoma cells, ECACC #93112519; DU 145, hormone-independent human prostate carcinoma cells, ATCC HTB-81; HeLa-MaTu-ADR, multidrug-resistant human cervical carcinoma cells, EPO-GmbH Berlin; Caco-2, human colorectal carcinoma cells, ATCC HTB-37; B16F10, mouse melanoma cells, ATCC CRL-6475) were plated at a density of 5,000 cells/well (DU145, HeLa-MaTu-ADR), 3,000 cells/well (NCI-H460, HeLa), 2,500 cells/well (A2780), 1,500 cells/well (Caco-2), or 1,000 cells/well (B16F10) in a 96-well multititer plate in 200 μL of their respective growth medium supplemented 10% fetal calf serum. After 24 hours, the cells of one plate (zero-point plate) were stained with crystal violet (see below), while the medium of the other plates was replaced by fresh culture medium (200 μl), to which the test substances were added in various concentrations (0 μM, as well as in the range of 0.001-10 μM; the final concentration of the solvent dimethyl sulfoxide was 0.5%). The cells were incubated for 4 days in the presence of test substances. Cell proliferation was determined by staining the cells with crystal violet: the cells were fixed by adding 20 μl/measuring point of an 11% glutaric aldehyde solution for 15 minutes at room temperature. After three washing cycles of the fixed cells with water, the plates were dried at room temperature. The cells were stained by adding 100 μl/measuring point of a 0.1% crystal violet solution (pH 3.0). After three washing cycles of the stained cells with water, the plates were dried at room temperature. The dye was dissolved by adding 100 μl/measuring point of a 10% acetic acid solution. The extinction was determined by photometry at a wavelength of 595 nm. The change of cell number, in percent, was calculated by normalization of the measured values to the extinction values of the zero-point plate (=0%) and the extinction of the untreated (0 μm) cells (=100%). The IC50 values (inhibitory concentration at 50% of maximal effect) were determined by means of a 4 parameter fit.

Caco-2 cells = assay: Proliferation assay, Caco-2 (Method 3); assay type: cell-based, human; settings: 4 days, crystal violet, read-out: Inhibition of Caco-2 cell proliferation IC50
Description: as §1

B16F10 cells = assay: Proliferation assay, B16F10 (Method 3); assay type: cell-based, mouse; settings: 4 days, crystal violet, read-out: Inhibition of B16F10 cell proliferation IC50
Description: as §1

HeLa-MaTu-ADR cells = assay: Proliferation assay, HeLa-MaTu-ADR (Method 3); assay type: cell-based, human; settings: 4 days, crystal violet, read-out: Inhibition of HeLa-MaTu-ADR cell proliferation IC50
Description: as §1

HeLa cells = assay: Proliferation assay, HeLa (Method 3); assay type: cell-based, human; settings: 4 days, crystal violet, read-out: Inhibition of HeLa cell proliferation IC50
Description: as §1

MOLM-13 cells = assay: Proliferation assay, MOLM-13 (Method 3); assay type: cell-based, human; settings: 72-hour exposure, Cell Titre-Glo, read-out: Inhibition of MOLM 13 cell proliferation IC50
Description: Non-adherent MOLM-13 human acute myeloid leukemia cells (DSMZ ACC 554) were seeded at a density of 5,000 cells/well in a 96-well multititer plate in 100 μL of growth medium supplemented 10% fetal calf serum. After 24 hours, cell viability of one plate (zero-point plate) was determined with the Cell Titre-Glo Luminescent Cell Viability Assay (Promega), while 50 μl of test compound containing medium was added to the wells of the other plates (final concentrations in the range of 0.001-10 μM and DMSO controls; the final concentration of the solvent dimethyl sulfoxide was 0.5%). Cell viability was assessed after 72-hour exposure with the Cell Titre-Glo Luminescent Cell Viability Assay (Promega). IC50 values (inhibitory concentration at 50% of maximal effect) were determined by means of a 4 parameter fit on measurement data which were normalized to vehicle (DMSO) treated cells (=100%) and measurement readings taken immediately before compound exposure (=0%).

IC50 (NCI-H460 cells; Homo sapiens, NCI-H460, 96 h) [nM] | IC50 (Caco-2 cells; Homo sapiens, Caco-2, 96 h) [nM] | IC50 (B16F10 cells; Mus musculus, B16-F10, 96 h) [nM] | IC50 (HeLa-MaTu-ADR cells; Homo sapiens, 96 h) [nM] | IC50 (HeLa cells; Homo sapiens, HeLa, 96 h) [nM] | IC50 (MOLM-13 cells; Homo sapiens, MOLM-13, 72 h) [nM] | IC50 (MOLM-13 cells) [nM] | IC50 (HeLa cells) [nM] | IC50 (NCI-H460 cells) [nM] | IC50 (Caco-2 cells) [nM] | IC50 (B16F10 cells) [nM] | IC50 (HeLa-MaTu-ADR cells) [nM] | SMILES
638 | 537 | 488 | 335 | 477 |  |  |  |  |  |  |  | COc1cc(F)ccc1-c1cc(Nc2cc(CS(C)(=N)=O)ccn2)ncn1 (racemic) [Example 1, (rac)-6-(4-Fluoro-2-methoxyphenyl)-N-{4-[(S-methylsulfonimidoyl)methyl]pyridin-2-yl}pyrimidin-4-amine]
372 | 145 | 215 | 97 | 109 | 47 |  |  |  |  |  |  | COc1cc(F)ccc1-c1cc(Nc2cc(CS(C)(=N)=O)cc(Cl)n2)ncn1 (racemic) [Example 4, (rac)-N-{6-Chloro-4-[(S-methylsulfonimidoyl)methyl]pyridin-2-yl}-6-(4-fluoro-2-methoxyphenyl)pyrimidin-4-amine]
375 | 230 | 216 | 217 | 121 | 53 |  |  |  |  |  |  | COc1cc(F)ccc1-c1cc(Nc2cc(CS(C)(=N)=O)cc(C)n2)ncn1 (racemic) [Example 7, (rac)-6-(4-Fluoro-2-methoxyphenyl)-N-{6-methyl-4-[(S-methylsulfonimidoyl)methyl]pyridin-2-yl}pyrimidin-4-amine]
135 | 116 | 100 | 104 | 60 | 32 |  |  |  |  |  |  | COc1cc(F)ccc1-c1cc(Nc2cc(CS(C)(=N)=O)cc(C(F)(F)F)n2)ncn1 (racemic) [Example 10, (rac)-6-(4-Fluoro-2-methoxyphenyl)-N-{4-[(S-methylsulfonimidoyl)methyl]-6-(trifluoromethyl)pyridin-2-yl}pyrimidin-4-amine]
 |  |  |  | 456 |  | 189 |  |  |  |  |  | COc1cc(F)ccc1-c1cc(Nc2cc(CS(C)(=N)=O)ccn2)ncn1 (single isomer, unassigned) [Example 2, 6-(4-Fluoro-2-methoxyphenyl)-N-{4-[(S-methylsulfonimidoyl)methyl]pyridin-2-yl}pyrimidin-4-amine]
 |  |  |  |  |  | 80 | 850 |  |  |  |  | COc1cc(F)ccc1-c1cc(Nc2cc(CS(C)(=N)=O)ccn2)ncn1 (single isomer, unassigned) [Example 3, 6-(4-Fluoro-2-methoxyphenyl)-N-{4-[(S-methylsulfonimidoyl)methyl]pyridin-2-yl}pyrimidin-4-amine]
185 | 166 | 122 | 109 | 104 | 33 |  |  |  |  |  |  | COc1cc(F)ccc1-c1cc(Nc2cc(CS(C)(=N)=O)cc(Cl)n2)ncn1 (single isomer, unassigned) [Example 5, N-{6-Chloro-4-[(S-methylsulfonimidoyl)methyl]pyridin-2-yl}-6-(4-fluoro-2-methoxyphenyl)pyrimidin-4-amine]
 |  |  |  |  |  | 44 | 104 | 192 | 177 | 123 | 111 | COc1cc(F)ccc1-c1cc(Nc2cc(CS(C)(=N)=O)cc(Cl)n2)ncn1 (single isomer, unassigned) [Example 6, N-{6-Chloro-4-[(S-methylsulfonimidoyl)methyl]pyridin-2-yl}-6-(4-fluoro-2-methoxyphenyl)pyrimidin-4-amine]
319 | 246 | 284 | 112 |  | 64 |  | 118 |  |  |  |  | COc1cc(F)ccc1-c1cc(Nc2cc(CS(C)(=N)=O)cc(C)n2)ncn1 (single isomer, unassigned) [Example 8, 6-(4-Fluoro-2-methoxyphenyl)-N-{6-methyl-4-[(S-methylsulfonimidoyl)methyl]pyridin-2-yl}pyrimidin-4-amine]
 |  |  |  |  |  | 43 | 52 | 193 | 212 | 205 | 178 | COc1cc(F)ccc1-c1cc(Nc2cc(CS(C)(=N)=O)cc(C)n2)ncn1 (single isomer, unassigned) [Example 9, 6-(4-Fluoro-2-methoxyphenyl)-N-{6-methyl-4-[(S-methylsulfonimidoyl)methyl]pyridin-2-yl}pyrimidin-4-amine]

Source: patent publication US9650361B2, “N-(pyridin-2-yl)pyrimidin-4-amine derivatives containing a sulfoximine group” (BAYER PHARAM AKTIENGESELLSCHAFT, priority 2012, dated 2017)
